Measurements from patent US7928225B2, “Oxabispidine compounds for the treatment of cardiac arrhythmias” (AstraZeneca AB, priority 2005, dated 2011).

How the values were obtained:
HERG channel = biological target: T1, HERG channel (Homo sapiens, UniProt Q12809); assay: Test B: Rb+-efflux assay for detection of HERG channel blockers; type: cell-based; settings: depolarisation-induced Rb+-efflux from Chinese hamster ovary cells stably expressing the HERG-channel
T1 construct: expressed in transfected cells
T1 sequence (Q12809 whole entry): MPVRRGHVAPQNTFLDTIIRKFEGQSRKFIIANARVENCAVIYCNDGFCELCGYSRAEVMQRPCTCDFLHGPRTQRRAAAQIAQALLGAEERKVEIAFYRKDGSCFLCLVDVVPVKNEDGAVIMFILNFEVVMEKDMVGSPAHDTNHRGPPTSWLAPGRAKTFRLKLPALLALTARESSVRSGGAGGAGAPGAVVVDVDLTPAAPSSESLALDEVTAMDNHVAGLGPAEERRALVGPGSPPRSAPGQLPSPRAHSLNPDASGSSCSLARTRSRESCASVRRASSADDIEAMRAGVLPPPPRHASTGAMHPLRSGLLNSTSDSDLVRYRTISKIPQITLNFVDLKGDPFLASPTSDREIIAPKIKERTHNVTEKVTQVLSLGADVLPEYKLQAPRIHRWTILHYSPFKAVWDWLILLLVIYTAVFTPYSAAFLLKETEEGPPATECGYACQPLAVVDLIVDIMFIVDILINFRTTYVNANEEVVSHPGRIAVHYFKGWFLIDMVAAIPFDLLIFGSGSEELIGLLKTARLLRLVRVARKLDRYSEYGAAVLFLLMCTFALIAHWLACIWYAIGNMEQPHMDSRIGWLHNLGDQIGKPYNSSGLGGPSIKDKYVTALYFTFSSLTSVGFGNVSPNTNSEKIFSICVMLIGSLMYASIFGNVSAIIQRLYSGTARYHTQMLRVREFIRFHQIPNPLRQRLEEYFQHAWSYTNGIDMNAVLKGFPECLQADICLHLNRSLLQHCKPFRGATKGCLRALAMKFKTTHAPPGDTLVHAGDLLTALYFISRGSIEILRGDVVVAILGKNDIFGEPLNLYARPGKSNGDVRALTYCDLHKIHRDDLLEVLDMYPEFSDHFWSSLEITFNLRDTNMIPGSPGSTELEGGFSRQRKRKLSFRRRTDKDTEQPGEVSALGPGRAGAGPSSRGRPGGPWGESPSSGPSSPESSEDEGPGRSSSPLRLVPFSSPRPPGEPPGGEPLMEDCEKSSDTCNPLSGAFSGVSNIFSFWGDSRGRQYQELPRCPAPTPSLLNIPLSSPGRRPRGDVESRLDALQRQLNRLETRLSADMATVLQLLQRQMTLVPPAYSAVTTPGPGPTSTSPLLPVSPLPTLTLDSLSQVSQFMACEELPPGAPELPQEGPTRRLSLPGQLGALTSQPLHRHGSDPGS
Procedure: Rb^+-Efflux Assay for Detection of HERG Channel Blockers
The human ether-a-go-go related gene (HERG) encodes the voltage-gated K^+ channel underlying the cardiac rapid delayed rectifier current IKr. The IC50 value for HERG channel blockade was determined using a high throughput functional assay based on depolarisation-induced Rb^+-efflux from Chinese hamster ovary cells stably expressing the HERG-channel.
Cells were grown in Ham F12 (Life Technologies 31765-027) supplemented with 10% FBS and 0.6 mg/mL hygromycin B and were routinely passaged twice-weekly. For experimental studies, cells were plated at a density of 15,000 cells/well in Falcon, 384-well tissue culture-treated black-walled clear-bottomed plates and were thereafter incubated overnight at 37° C. in a cell culture incubator.
Following incubating overnight, cell plates were washed and a Rb^+-Load buffer (a physiological buffer containing Rb^+) was added. Cell plates were then incubated for 3 hours and were thereafter washed. Following this wash, the test compounds were added. The cell plates were then incubated for another 10 minutes and, following this incubation period, external K^+ concentration was increased in order to depolarize the cells and activate HERG channels. […]
Compound activity was expressed as: […]

[1] = tested on: anaesthetised guinea pigs; assay: Test A: Primary electrophysiological effects in anaesthetised guinea pigs (MAP duration); type: in vivo, guinea pig; settings: infusion into jugular vein, MAP duration at 75 percent repolarization during pacing, from mean dose-response curve
Procedure: Primary Electrophysiological Effects in Anaesthetised Guinea Pigs
Guinea pigs weighing between 500 and 1000 g were used. The animals were housed for at least one week before the experiment and had free access to food and tap water during that period.
Anaesthesia was induced by an intraperitoneal injection of pentobarbital (50 to 60 mg/kg) and catheters were introduced into one carotid artery (for blood pressure recording and blood sampling) and into one jugular vein (for drug infusions). Needle electrodes were placed on the limbs for recording of ECGs (lead II). […]
The left ventricular epicardium was exposed by a left-sided thoracotomy, and a custom-designed suction electrode for recording of the monophasic action potential (MAP) was applied to the left ventricular free wall. The electrode was kept in position as long as an acceptable signal could be recorded, otherwise it was moved to a new position. […]
Of the numerous variables measured in this analysis, three were selected as the most important for comparison and selection of active compounds. […] Systolic and diastolic blood pressure were measured in order to judge the haemodynamic status of the anaesthetised animal. […]
The mean of the two control recordings was set to zero and the effects recorded after consecutive doses of test substance were expressed as percentage changes from this value. […]

SMILES	pIC50 for HERG channel blockade (HERG channel)	D10 (cumulative dose prolonging the MAP duration by 10% from the baseline; index of class III electrophysiological potency) [1]
CC(C)(C)OC(=O)NCCN1CC2CN(CCOc3ccc(C#N)cc3F)CC(C1)O2 [Example 2, tert-Butyl (2-{7-[2-(4-cyano-2-fluorophenoxy)ethyl]-9-oxa-3,7-diazabicyclo-[3.3.1]non-3-yl}ethyl)carbaamate]	5.0	6.3
CC(C)(C)OC(=O)NCCCN1CC2CN(CCCOc3ccc(C#N)cc3)CC(C1)O2 [Example 5]	6.19	6.8
